Data as given in ChEMBL document CHEMBL1201862, “PubChem BioAssay data set” (2004).
Active and inactive are the calls of the source.

Legend:
P388 = experiment: cells; assay type: functional; conditions: Mus musculus
SN12K1 = experiment: cells; assay type: functional; conditions: Homo sapiens
P388/ADR = experiment: cells; assay type: functional; conditions: Mus musculus
[1] = target: Dual specificity tyrosine-phosphorylation-regulated kinase 1A (Rattus norvegicus, UniProt Q63470); assay type: biochemical, Homo sapiens
[2] = target: T1, Calpain-2 catalytic subunit (Sus scrofa, UniProt P43367); experiment: pig calpain II inhibitor potency, dose response, biochemical, fluorogenic peptide substrate (AID 1420); assay type: functional
T1 sequence (P43367 whole entry): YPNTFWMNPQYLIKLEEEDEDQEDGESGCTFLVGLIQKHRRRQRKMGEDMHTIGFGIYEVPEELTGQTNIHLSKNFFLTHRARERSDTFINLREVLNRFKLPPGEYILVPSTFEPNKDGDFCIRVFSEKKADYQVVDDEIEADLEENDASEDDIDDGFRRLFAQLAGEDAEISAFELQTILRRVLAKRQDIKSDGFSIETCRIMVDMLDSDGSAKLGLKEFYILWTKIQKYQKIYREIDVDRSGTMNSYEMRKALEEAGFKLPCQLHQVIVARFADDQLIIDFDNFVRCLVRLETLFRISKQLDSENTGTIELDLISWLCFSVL

[3] = cytotoxicity in HEK-293T cells, dose response, cytotoxicity control for TCR NF-kB inhibitor project, luminescence, T-cell screen hits (AID 489026); assay type: functional, cell-based;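 further: cells exposed to compound about 14 hours before the viability readout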
BJ [4] = experiment: cells; assay type: functional, cell-based; conditions: Homo sapiens
BJ [5] = experiment: cytotoxicity toward BJ-TERT-LT-ST fibroblasts, dose response, cell-based, RAS-independent, luminescence (AID 1935); assay type: functional; conditions: Homo sapiens;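 further: BJ fibroblasts immortalized with TERT plus LT and ST oncogenes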
INS1 = experiment: beta cell apoptosis inhibitors, cytokine rescue, dose response, luminescence, retest (AID 449756); assay type: functional, cell-based; conditions: Rattus norvegicus;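 further: cell death triggered by IL-1 beta plus TNF-alpha plus IFN-gamma mixture; protective hits raise ATP signal compared with cytokine alone wells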
[6] = cytotoxicity toward DRD oncogenic fibroblasts, dose response, cell-based, non-viral oncogenic, luminescence (AID 1934); assay type: functional; conditions: Homo sapiens
BJ [7] = experiment: cytotoxicity toward BJ-TERT fibroblasts, dose response, cell-based, RAS-independent, luminescence (AID 1933); assay type: functional; conditions: Homo sapiens
[8] = NIH-3T3 fibroblast cytotoxicity, dose response, cytotoxicity control, cell-based, fluorescence, Alamar Blue, secondary assay (AID 2327); assay type: functional;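 further: NIH-3T3 mouse fibroblasts cultured with fluconazole at 8 µg/mL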
cells [9] = assay type: functional, cell-based
[10] = C. albicans growth with fluconazole, confirmation, fluorescence, retest (AID 2467); assay type: functional, cell-based
cells [11] = assay type: functional, cell-based; remark: listed apart in the source
Nonstructural protein 1 = Nonstructural protein 1 (Influenza A virus, UniProt Q194T2); assay type: functional, Influenza A virus (A/California/07/2009(H1N1))
Sequence of Nonstructural protein 1 (Q194T2 whole entry): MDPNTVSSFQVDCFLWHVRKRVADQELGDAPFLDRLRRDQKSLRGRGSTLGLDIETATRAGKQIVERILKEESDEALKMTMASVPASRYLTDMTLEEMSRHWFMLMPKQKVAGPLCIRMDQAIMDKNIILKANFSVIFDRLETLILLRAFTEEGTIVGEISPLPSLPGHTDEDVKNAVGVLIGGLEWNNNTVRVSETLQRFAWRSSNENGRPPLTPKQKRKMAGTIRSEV

cells [12] = assay type: functional
[13] = microbe, parasite or virus in culture; assay type: functional; conditions: Mycobacterium tuberculosis
[14] = THP-1 cell cytotoxicity, dose response, cytotoxicity control for non-replicating M. tuberculosis project (AID 489025); assay type: functional
[15] = target: T2, Heat shock factor protein 1 (Mus musculus, UniProt P38532); experiment: inhibition of MG132-induced HSE-luciferase signal, confirmation, cell-based, NIH3T3, luminescence, dose retest (AID 2382); assay type: functional;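 further: NIH3T3 fibroblasts with HSF1-driven luciferase reporter stressed by proteasome inhibitor MG132; luminescence from HSF1-driven luciferase expression after 8 hours of MG132 stress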
T2 sequence (P38532 whole entry): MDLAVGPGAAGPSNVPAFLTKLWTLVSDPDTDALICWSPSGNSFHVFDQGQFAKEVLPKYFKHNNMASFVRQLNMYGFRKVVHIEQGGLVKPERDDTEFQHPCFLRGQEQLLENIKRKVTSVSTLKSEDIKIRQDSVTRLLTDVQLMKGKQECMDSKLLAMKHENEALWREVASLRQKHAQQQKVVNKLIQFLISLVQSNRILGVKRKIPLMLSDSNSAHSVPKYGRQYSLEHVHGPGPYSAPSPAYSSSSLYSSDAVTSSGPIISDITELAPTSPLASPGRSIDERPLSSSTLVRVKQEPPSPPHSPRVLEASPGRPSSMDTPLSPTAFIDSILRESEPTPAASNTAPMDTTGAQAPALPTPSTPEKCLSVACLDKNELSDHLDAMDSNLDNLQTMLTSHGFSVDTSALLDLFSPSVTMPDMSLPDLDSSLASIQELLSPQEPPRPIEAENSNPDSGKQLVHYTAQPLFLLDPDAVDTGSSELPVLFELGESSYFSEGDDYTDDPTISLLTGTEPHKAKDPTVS

[16] = A cytotoxicity screen of small molecule inhibitors of the PhoP region in Salmonella typhi identified in the primary screen. [Related pubchem assays: 1850, 1864, 1985 ]; assay type: functional
[17] = intracellular Trypanosoma cruzi inhibitors in host cells – cell-based, plate reader, cherry-pick samples, set 3, dose response (AID 651818); assay type: functional;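 further: compounds incubated with infected cells for about four days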
[18] = inhibitors of firefly luciferase expression or activity, dose response, H4 neuroglioma cells, luminescence (AID 1990); assay type: functional, cell-based
[19] = Luminescence Cell-Based Dose Response HTS to Identify Inhibitors of 5'UTR Stem-Loop Driven Prion Protein mRNA Translation in H4 Neuroglioblastoma Cells. [Related pubchem assays: 1827 (Project Summary), 1813 (Primary HTS)]; assay type: functional
[20] = inhibitors of SNCA 5'UTR-driven reporter translation, confirmation, H4 neuroglioma cells, luminescence (AID 1988); assay type: functional, cell-based
Streptococcus = experiment: Group A Streptococcus viability loss, dose response, counter-screen for streptokinase expression inhibitor project, luminescence, BacTiterGlo (AID 1915); assay type: functional, organism-based;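 further: potency for reduction of bacterial viability or growth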
Vero = experiment: cells; assay type: functional; conditions: Chlorocebus sabaeus
Streptokinase A = target: T3, Streptokinase A (Streptococcus pyogenes serotype M1, UniProt P10520); experiment: S. pyogenes streptokinase expression inhibitors, potency, dose response, plasminogen activation absorbance, OD405 (AID 1914); assay type: functional, Streptococcus pyogenes M1 GAS;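 further: secreted streptokinase activity via plasminogen activation per viability signal from cell pellet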
T3 sequence (P10520 whole entry): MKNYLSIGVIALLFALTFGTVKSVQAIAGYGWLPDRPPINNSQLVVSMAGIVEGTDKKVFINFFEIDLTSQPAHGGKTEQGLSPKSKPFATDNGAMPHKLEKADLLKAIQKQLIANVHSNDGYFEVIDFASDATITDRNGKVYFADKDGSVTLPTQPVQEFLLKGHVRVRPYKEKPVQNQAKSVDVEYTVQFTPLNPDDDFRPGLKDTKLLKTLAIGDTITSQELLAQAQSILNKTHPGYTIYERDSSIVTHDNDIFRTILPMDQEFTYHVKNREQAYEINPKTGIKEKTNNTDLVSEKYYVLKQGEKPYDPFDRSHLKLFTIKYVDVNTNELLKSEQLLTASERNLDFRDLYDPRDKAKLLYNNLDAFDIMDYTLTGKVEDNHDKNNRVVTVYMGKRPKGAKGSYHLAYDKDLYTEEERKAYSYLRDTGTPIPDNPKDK

[21] = system: Streptococcus sp. 'group A'; experiment: growth inhibition of control SK(-) GAS strain, dose response, counter-screen for streptokinase expression inhibitor project, luminescence, kanamycin, BacTiterGlo, confirmation (AID 1900); assay type: functional, organism-based

Q: With `CCOCC(=O)N(C)c1cccc2c3c(n(C)c12)CCCCC3` as the molecule, how does the GI50 (P388) read?
A: Its GI50 is > 100 µM (inactive).

Q: What about the GI50 (SN12K1) of the same molecule?
A: Its GI50 is > 100 µM (inactive).

Q: And the GI50 (P388/ADR)?
A: Its GI50 is > 100 µM (inactive).

Q: For `N=C(N)/N=N/c1c(O)[nH]c2ccc(Br)cc12`, which AC50 [1] is on record?
A: The AC50 was 5.14 µM (active).

Q: What does the source list for `O=C1CC(c2cccc(Br)c2)c2cc3c(cc2N1)CCC3` (stereo not given)?
A: IC50 [2]: > 50 µM (not active); IC50 [3]: > 80 µM (inactive)

Q: Which results are given for `COC1CC(C)C(OC)c2cc(O)cc(c2O)NC(=O)/C(C)=C/C=C\C(C)C(OC(N)=O)/C(C)=C\C(C)C1OC` (stereo not given)?
A: GI50 (P388): 0.0693 µM (active); GI50 (P388/ADR): 1.55 µM (inactive)

Q: With `CC1(CO)C(O)CCC2(C)C1C(O)CC1CC3CC12CCC3(O)CO` (stereo not given) as the molecule, how does the GI50 (P388) read?
A: The GI50 was 11.2 µM (inactive).

Q: And the GI50 (SN12K1)?
A: Its GI50 is 209 µM (inactive).

Q: What about the GI50 (P388/ADR) of the same molecule?
A: Its GI50 is 187 µM (inactive).

Q: With `Cc1nnc(N/N=C/c2ccccn2)nc1O` as the molecule, how does the EC50 (BJ [4]) read?
A: Its EC50 is 4.02 µM (active).

Q: What about the EC50 (BJ [5]) of the same molecule?
A: The EC50 was 5.42 µM (active).

Q: What about the AC50 (INS1) of the same molecule?
A: The AC50 was 1.56 µM (active).

Q: And the EC50 [6]?
A: The EC50 was 5.38 µM (inconclusive).

Q: What about the EC50 (BJ [7]) of the same molecule?
A: Its EC50 is 1.69 µM (active).

Q: What about the EC50 [8] of the same molecule?
A: The EC50 was 4.26 µM (active).

Q: And the EC50 (cells [9])?
A: Its EC50 is 7.24 µM (active).

Q: And the EC50 [10]?
A: Its EC50 is 2.72 µM (active).

Q: What about the EC50 (cells [11]) of the same molecule?
A: The EC50 was > 350 µM (not active).

Q: And the IC50 [3]?
A: Its IC50 is > 80 µM (inactive).

Q: What about the IC50 (Nonstructural protein 1) of the same molecule?
A: Its IC50 is 3.92 µM (active).

Q: Which results are given for `Cc1ccc(S(=O)(=O)/N=C(\CCl)N2CCOCC2)cc1`?
A: IC50 (cells [12]): 10.8 µM (active); CC50 [13]: > 40 µM (active); CC50 [14]: 30.1 µM (active)

Q: Which IC50 [3] does the source give for `Cc1noc(C)c1COc1cccc(C(=O)OCC(=O)N2CC(=O)Nc3ccccc32)c1` here?
A: Its IC50 is > 80 µM (inactive).

Q: Which results are given for `c1ccc(-c2nc3ccccc3[nH]2)cc1`?
A: EC50 [15]: > 195 µM (not active); EC50 [16]: > 50 µM (active)

Q: For `Cc1ccc(S(=O)(=O)Nc2ccc3c(c2)CC(=O)N([C@@H](C)CO)C[C@H](C)[C@H](CN(C)Cc2ccc(C(=O)Nc4ccccc4N)cc2)O3)cc1`, which AC50 [17] is on record?
A: Its AC50 is 2.31 µM (active).

Q: What does the source list for `CCO[C@@H]1OC(C(=O)NCc2nc3ccccc3[nH]2)=C[C@H](C(C)(C)C)[C@H]1CCCO`?
A: EC50 [18]: > 60 µM (not active); EC50 [19]: 10.5 µM (active); EC50 [20]: 0.297 µM (inconclusive); IC50 [3]: > 80 µM (inactive)

Q: Which results are given for `COCCCn1c(N)c(C(=O)Nc2ccccc2)c2nc3ccccc3nc21`?
A: EC50 (Streptococcus): 32.8 µM (active); CC50 (Vero): > 25 µM (active); EC50 (Streptokinase A): > 150 µM (not active); EC50 [21]: 16.9 µM (active)

Q: Which results are given for `CC[C@@]1(O)C(=O)OCc2c1cc1n(c2=O)Cc2cc3cc(O)ccc3nc2-1` [HYDROXYCAMPTOTHECIN]?
A: GI50 (P388): 0.0203 µM (active); GI50 (SN12K1): 0.01 µM (active); GI50 (P388/ADR): 0.0304 µM (active)
